Measurements reported in ChEMBL document CHEMBL4028802, “DILIrank: the largest reference drug list ranked by the risk for developing drug-induced liver injury in humans” (Drug Discov Today, 2016).

Columns and labels:
Homo sapiens [1] = organism: Homo sapiens; experiment: Liver toxicity in human assessed as induction of drug-induced liver injury by measuring verified drug-induced liver injury concern status
Homo sapiens [2] = organism: Homo sapiens; experiment: Liver toxicity in human assessed as induction of drug-induced liver injury by measuring severity class index
Wherever DILI severity class is given: key of the grades not given here.

SMILES | DILI_Concern (Homo sapiens [1]) | DILI_severity_class (Homo sapiens [2])
CC[C@H](C)[C@H](NC(=O)[C@H](CCC(=O)O)NC(=O)[C@H](CO)NC(=O)[C@@H](NC(=O)[C@@H](N)CO)C(C)C)C(=O)N[C@@H](CCC(N)=O)C(=O)N[C@@H](CC(C)C)C(=O)N[C@@H](CCSC)C(=O)N[C@@H](Cc1cnc[nH]1)C(=O)N[C@@H](CC(N)=O)C(=O)N[C@@H](CC(C)C)C(=O)NCC(=O)N[C@@H](CCCCN)C(=O)N[C@@H](Cc1cnc[nH]1)C(=O)N[C@@H](CC(C)C)C(=O)N[C@@H](CC(N)=O)C(=O)N[C@@H](CO)C(=O)N[C@@H](CCSC)C(=O)N[C@@H](CCC(=O)O)C(=O)N[C@@H](CCCN=C(N)N)C(=O)N[C@H](C(=O)N[C@@H](CCC(=O)O)C(=O)N[C@@H](Cc1c[nH]c2ccccc12)C(=O)N[C@@H](CC(C)C)C(=O)N[C@@H](CCCN=C(N)N)C(=O)N[C@@H](CCCCN)C(=O)N[C@@H](CCCCN)C(=O)N[C@@H](CC(C)C)C(=O)N[C@@H](CCC(N)=O)C(=O)N[C@@H](CC(=O)O)C(=O)N[C@H](C(=O)N[C@@H](Cc1cnc[nH]1)C(=O)N[C@@H](CC(N)=O)C(=O)N[C@@H](Cc1ccccc1)C(=O)O)C(C)C)C(C)C [TERIPARATIDE] | No-Dili-Concern | 0
C[C@]12CC[C@H]3[C@@H](CCC4=CC(=O)CC[C@@]43C)[C@@H]1CC[C@@H]2O [TESTOSTERONE] | Most-Dili-Concern | 8
COc1cc2c(cc1OC)C1CC(=O)C(CC(C)C)CN1CC2 (stereo not given) [TETRABENAZINE] | Ambiguous-Dili-Concern | 3
CN(C)[C@@H]1C(O)=C(C(N)=O)C(=O)[C@@]2(O)C(O)=C3C(=O)c4c(O)cccc4[C@@](C)(O)[C@H]3C[C@@H]12 [TETRACYCLINE] | Less-Dili-Concern | 2
O=C1CCC(N2C(=O)c3ccccc3C2=O)C(=O)N1 (stereo not given) [THALIDOMIDE] | Less-Dili-Concern | 4
Cn1c(=O)c2[nH]cnc2n(C)c1=O.O [THEOPHYLLINE] | No-Dili-Concern | 0
c1ccc2[nH]c(-c3cscn3)nc2c1 [THIABENDAZOLE] | Most-Dili-Concern | 7
Cc1ncc(C[n+]2csc(CCO)c2C)c(N)n1 [THIAMINE ION] | No-Dili-Concern | 0
CSc1ccc2c(c1)N(CCC1CCCCN1C)c1ccccc1S2 (stereo not given) [THIORIDAZINE] | Less-Dili-Concern | 5
S=P(N1CC1)(N1CC1)N1CC1 [THIOTEPA] | Less-Dili-Concern | 3
Cc1ccsc1C(=CCCN1CCC[C@@H](C(=O)O)C1)c1sccc1C [TIAGABINE] | Ambiguous-Dili-Concern | 3
CN(C)c1cc(NC(=O)CNC(C)(C)C)c(O)c2c1C[C@H]1C[C@H]3[C@H](N(C)C)C(O)=C(C(N)=O)C(=O)[C@@]3(O)C(O)=C1C2=O [TIGECYCLINE] | Ambiguous-Dili-Concern | 8
Cc1cc(Br)c(O)c2ncccc12 [TILBROQUINOL] | Most-Dili-Concern | 8
O=P(O)(O)C(Sc1ccc(Cl)cc1)P(=O)(O)O [TILUDRONIC ACID] | No-Dili-Concern | 0
CC(C)(C)NC[C@H](O)COc1nsnc1N1CCOCC1 [TIMOLOL] | Ambiguous-Dili-Concern | 5
CCS(=O)(=O)CCn1c([N+](=O)[O-])cnc1C [TINIDAZOLE] | Less-Dili-Concern | 3
CC(S)C(=O)NCC(=O)O (stereo not given) [TIOPRONIN] | Ambiguous-Dili-Concern | 3
CCCCS(=O)(=O)N[C@@H](Cc1ccc(OCCCCC2CCNCC2)cc1)C(=O)O [TIROFIBAN] | No-Dili-Concern | 0
Clc1ccc2nsnc2c1NC1=NCCN1 [TIZANIDINE] | Most-Dili-Concern | 8
Cc1ccc(S(=O)(=O)NC(=O)NN2CCCCCC2)cc1 [TOLAZAMIDE] | Less-Dili-Concern | 2
Cc1ccc(C(=O)c2cc(O)c(O)c([N+](=O)[O-])c2)cc1 [TOLCAPONE] | Most-Dili-Concern | 8
Cc1ccc(C(=O)c2ccc(CC(=O)O)n2C)cc1 [TOLMETIN] | Less-Dili-Concern | 3
COc1ccc2c(C(=S)N(C)CC(=O)O)cccc2c1C(F)(F)F [TOLRESTAT] | Most-Dili-Concern | 8
Cc1ccc(O)c([C@H](CCN(C(C)C)C(C)C)c2ccccc2)c1 [TOLTERODINE] | No-Dili-Concern | 0
Cc1ccccc1C(=O)Nc1ccc(C(=O)N2CCCC(O)c3cc(Cl)ccc32)c(C)c1 (stereo not given) [TOLVAPTAN] | Most-Dili-Concern | 8
CC1(C)O[C@@H]2[C@@H](CO[C@@]3(COS(N)(=O)=O)OC(C)(C)O[C@@H]23)O1 [TOPIRAMATE] | Less-Dili-Concern | 3
CC[C@@]1(O)C(=O)OCc2c1cc1n(c2=O)Cc2cc3c(CN(C)C)c(O)ccc3nc2-1 [TOPOTECAN] | No-Dili-Concern | 0
CN(C)CCOc1ccc(/C(=C(/CCCl)c2ccccc2)c2ccccc2)cc1 [TOREMIFENE] | Ambiguous-Dili-Concern | 3

SMILES | DILI_Concern (Homo sapiens [1]) | DILI_severity_class (Homo sapiens [2])
Cc1cccc(Nc2ccncc2S(=O)(=O)NC(=O)NC(C)C)c1 [TORSEMIDE] | Ambiguous-Dili-Concern | 2
COc1cccc(C2(O)CCCCC2CN(C)C)c1 (stereo not given) [TRAMADOL] | Ambiguous-Dili-Concern | 7
CCOC(=O)[C@H](CCc1ccccc1)N[C@@H](C)C(=O)N1[C@H](C(=O)O)C[C@H]2CCCC[C@@H]21 [TRANDOLAPRIL] | Less-Dili-Concern | 4
N[C@@H]1C[C@H]1c1ccccc1.N[C@H]1C[C@@H]1c1ccccc1 [TRANYLCYPROMINE] | Less-Dili-Concern | 3
O=c1n(CCCN2CCN(c3cccc(Cl)c3)CC2)nc2ccccn12 [TRAZODONE] | Less-Dili-Concern | 5
CC1=C(/C=C/C(C)=C/C=C/C(C)=C/C(=O)O)C(C)(C)CCC1 [TRETINOIN] | Ambiguous-Dili-Concern | 3
CC(=O)Oc1ccc(C2(c3ccc(OC(C)=O)cc3)C(=O)N(C(C)=O)c3ccccc32)cc1 [TRIACETYLDIPHENOLISATIN] | Most-Dili-Concern | 8
Cc1nnc2n1-c1ccc(Cl)cc1C(c1ccccc1Cl)=NC2 [TRIAZOLAM] | Ambiguous-Dili-Concern | 4
CN1CCN(CCCN2c3ccccc3Sc3ccc(C(F)(F)F)cc32)CC1 [TRIFLUOPERAZINE] | Ambiguous-Dili-Concern | 2
OC(CCN1CCCCC1)(c1ccccc1)C1CCCCC1 (stereo not given) [TRIHEXYPHENIDYL] | No-Dili-Concern | 0
CN1C(=O)OC(C)(C)C1=O [TRIMETHADIONE] | Ambiguous-Dili-Concern | 5
COc1cc(C(=O)NCc2ccc(OCCN(C)C)cc2)cc(OC)c1OC [TRIMETHOBENZAMIDE] | Ambiguous-Dili-Concern | 5
COc1cc(Cc2cnc(N)nc2N)cc(OC)c1OC [TRIMETHOPRIM] | Less-Dili-Concern | 4
COc1cc(NCc2ccc3nc(N)nc(N)c3c2C)cc(OC)c1OC [TRIMETREXATE] | Ambiguous-Dili-Concern | 3
CC(CN(C)C)CN1c2ccccc2CCc2ccccc21 (stereo not given) [TRIMIPRAMINE] | Ambiguous-Dili-Concern | 2
Cc1ccc(/C(=C\CN2CCCC2)c2ccccn2)cc1 [TRIPROLIDINE] | No-Dili-Concern | 0
Cc1c(C)c2c(c(C)c1O)CCC(C)(COc1ccc(CC3SC(=O)NC3=O)cc1)O2 (stereo not given) [TROGLITAZONE] | Most-Dili-Concern | 8
NC(CO)(CO)CO [TROMETHAMINE] | Ambiguous-Dili-Concern | 6
O=C(O[C@H]1C[C@H]2CC[C@@H](C1)[N+]21CCCC1)C(O)(c1ccccc1)c1ccccc1.[Cl-] [TROSPIUM CHLORIDE] | No-Dili-Concern | 0
N[C@@H]1[C@H]2CN(c3nc4c(cc3F)c(=O)c(C(=O)O)cn4-c3ccc(F)cc3F)C[C@@H]12 [TROVAFLOXACIN] | Most-Dili-Concern | 8
NCCc1ccc(O)cc1 [TYRAMINE] | No-Dili-Concern | 0
C[C@H](CCC(=O)O)[C@H]1CC[C@H]2[C@@H]3[C@@H](O)C[C@@H]4C[C@H](O)CC[C@]4(C)[C@H]3CC[C@]12C [URSODIOL] | Ambiguous-Dili-Concern | 0
CC(C)[C@H](N)C(=O)OCCOCn1cnc2c(=O)[nH]c(N)nc21 [VALACYCLOVIR] | Less-Dili-Concern | 3
Cc1onc(-c2ccccc2)c1-c1ccc(S(N)(=O)=O)cc1 [VALDECOXIB] | Less-Dili-Concern | 3
CC(C)[C@H](N)C(=O)OCC(CO)OCn1cnc2c(=O)nc(N)[nH]c21 (stereo not given in full) [VALGANCICLOVIR] | Ambiguous-Dili-Concern | 3
CN[C@H](CC(C)C)C(=O)N[C@H]1C(=O)N[C@@H](CC(N)=O)C(=O)N[C@H]2C(=O)N[C@H]3C(=O)N[C@H](C(=O)N[C@H](C(=O)O)c4cc(O)cc(O)c4-c4cc3ccc4O)[C@H](O)c3ccc(c(Cl)c3)Oc3cc2cc(c3O[C@@H]2O[C@H](CO)[C@@H](O)[C@H](O)[C@H]2O[C@H]2C[C@](C)(N)[C@H](O)[C@H](C)O2)Oc2ccc(cc2Cl)[C@H]1O [VANCOMYCIN] | Less-Dili-Concern | 0
c1cnc2cc3c(cc2n1)[C@@H]1CNC[C@H]3C1 [VARENICLINE] | Less-Dili-Concern | 2
